The target in one series is PARP1 (Homo sapiens, UniProt P09874). The experiment in a line: PARP1-DNA enzymatic trapping assay. The conditions noted are these: 10 nM PARP1, 5 nM DNA probe, 2 mM NAD+, fluorescence polarization read at 30 minutes. It is filed as biochemical. As for the experimental part:
Enzymatic trapping assay is to measure the dissociation process of PARP1 from fluorescein-labeled DNA during the enzymatic activity. Assay was conducted at a total 10 μL of reaction volume, including 10 nM PARP1 and 5 nM DNA probe in the binding buffer (50 mM Tris-HCl pH 8.0, 50 mM NaCl, 1 mM MgCl2, 0.1 mM EDTA, and 0.01% IGEPAL), and was commenced by adding a final concentration of 2 mM NAD+ substrate.
PARP1 Poly-ADP ribosylation (PARylation) inhibitory assay was conducted with compounds dissolved in DMSO at a starting concentration of 5 μM. Dissolved compounds were added to 384-well microplate and premixed with PARPI enzyme and DNA probe for 20 minutes incubation. Enzymatic reactions were started by adding NAD+ to mixture, and each well was read at 30 minutes by microplate reader (VICTOR Nivo®, PerkinElmer) to detect the fluorescence polarization signal at 480 nm excitation/530 nm dual emission.
All measured IC50 values were calculated using four parameters dose-response inhibition model in GraphPad Prism 8.0.2 (La Jolla, California, USA, www.graphpad.com).
Background: In fluorescence polarisation assays a small probe gives low polarisation when free and higher when bound to something large.

The target of a further series is PARP2 (Homo sapiens, UniProt Q9UGN5). The experiment in a line: PARP2-FL displacement assay. It is filed as binding. To be noted: 20 nM PARP2, 3 nM PARPi-FL, 4 hours incubation, fluorescence polarization. As for the experimental part: A potent PARP inhibitor (PARPi-FL, Cat No. 6461, Tocris Bioscience) conjugated to BDY FL fluorophore was adopted to characterize the activity of PARP2 by measuring the displacement of binding of PARPi-FL to PARP2. Compounds to be tested were prepared at a concentration of 1-10 mM, and made a 3-fold serial dilution by 100% DMSO in a polypropylene plate (Bio-One small volume microplate, black, Cat No. 784076, Greiner). 100 nL of test compounds were dispensed into a 384-well polypropylene microplate and added 10 μL of reaction solution including premixed 20 nM PARP2 and 3 nM PARPi-FL. After 4 hours of incubation at room temperature, the fluorescence polarization signal at 480/30 nm excitation and 530/30 nm dual emission was measured by VICTOR Nivo® multimode plate reader (PerkinElmer). All of the measured IC50 values were calculated using four parameters dose-response inhibition model in GraphPad Prism 8.0.2 (La Jolla, California, USA, www.graphpad.com).

A further series has as its system MDA-MB-436 cells. The series can be described thus: Cell proliferation assay (MDA-MB-436). It is filed as cell-based. To be noted: Homo sapiens, MDA-MB-436, 168 h, at least 7 days, Cell-Titer Glo, read-out: MDA-MB-436 anti-proliferation assay. Here is the method:
(§1) For PARPi sensitivity, exponentially growing MDA-MB-436 and DLD1 BRCA2^−/− cells were seed in 96 or 384-well plates at very low density with the goal of not splitting for at least 7 days (typically 0.3k-1.2k cells/well). Cells were plated on […] and treated with DMSO or increasing concentrations of PARP1 inhibitors on Day 0. At the end of the experiment, cell viability was estimated using Cell-Titer Glo (Promega).

The subject of the next series is DLD1 BRCA2−/− cells. The series can be described thus: Cell proliferation assay (DLD1 BRCA2−/−). It is filed as cell-based. To be noted: Homo sapiens, DLD-1, 168 h, at least 7 days, Cell-Titer Glo, read-out: DLD1 BRCA2−/− anti-proliferation assay. Here is the method: as §1
Series [1] is described as follows: Tumor/plasma ratio study in MDA-MB-436 tumor-bearing mouse. It is filed as in vivo. To be noted: female NOD-SCID mice with MDA-MB-436 tumors, dosed 28 days; for concentration at 24 h: LC-MS/MS; for Kp at 24 h: tumor/plasma, 24 hours after the last dose. Here is the method:
1×10^7 MDA-MB-436 cells were implanted subcutaneously onto the flank of female NOD-SCID mice (aged 6-8 weeks weighing approximately 18-22 g). When tumors reached approximately 150-180 mm3, the mice were randomly assigned to treatment groups. The mice were continuously dosed with the Compounds for 28 days. On day 29, blood (50 μL) and tumor tissue samples were collected at 24 hours after the last dose. The collected blood samples were then centrifuged at 4600 rpm for 5 minutes at 4° C. to obtain plasma. To determine compound levels in plasma samples, each plasma sample was prepared using an appropriate dilution factor and compared against an 11-point standard calibration curve (1-5,000 ng/mL) prepared in DMSO and spiked into blank plasma. Acetonitrile (200 μL) was added with internal standard into 20 μL plasma samples, followed by centrifugation at 5,500 rpm for 10 minutes. Supernatant (150 μL) was then diluted in water (150 μL) and analyzed via LC-MS/MS. Tumor tissue samples were weighed, and then homogenized with 80% methanol at a ratio of 1:5 or 1:10 (tumor weight in grams to methanol volume in milliliters). Acetonitrile (300 μL) was added with internal standard into 30 μL tumor homogenates sample. The samples were vortexed for 30 s and then centrifuged at 5,500 rpm for 10 min at 4° C. The supernatant (150 μL) was transferred to 96-well plate and diluted with water (150 μL) and analyzed via LC-MS/MS. If a sample concentration in initial assay was not covered in the range of a given standard curve, proper dilution and concentration procedures were used in repeated testing.

Setting [2] is: tumor tissue 24 hours after the last dose, read-out: Tumor.
[3] abbreviates: plasma, sample 24 hours after the last dose, read-out: Plasma.

Each structure is given as a SMILES string. Like-named read-outs stand apart in the source and are kept apart here.

PARP1, sequence (P09874 whole entry): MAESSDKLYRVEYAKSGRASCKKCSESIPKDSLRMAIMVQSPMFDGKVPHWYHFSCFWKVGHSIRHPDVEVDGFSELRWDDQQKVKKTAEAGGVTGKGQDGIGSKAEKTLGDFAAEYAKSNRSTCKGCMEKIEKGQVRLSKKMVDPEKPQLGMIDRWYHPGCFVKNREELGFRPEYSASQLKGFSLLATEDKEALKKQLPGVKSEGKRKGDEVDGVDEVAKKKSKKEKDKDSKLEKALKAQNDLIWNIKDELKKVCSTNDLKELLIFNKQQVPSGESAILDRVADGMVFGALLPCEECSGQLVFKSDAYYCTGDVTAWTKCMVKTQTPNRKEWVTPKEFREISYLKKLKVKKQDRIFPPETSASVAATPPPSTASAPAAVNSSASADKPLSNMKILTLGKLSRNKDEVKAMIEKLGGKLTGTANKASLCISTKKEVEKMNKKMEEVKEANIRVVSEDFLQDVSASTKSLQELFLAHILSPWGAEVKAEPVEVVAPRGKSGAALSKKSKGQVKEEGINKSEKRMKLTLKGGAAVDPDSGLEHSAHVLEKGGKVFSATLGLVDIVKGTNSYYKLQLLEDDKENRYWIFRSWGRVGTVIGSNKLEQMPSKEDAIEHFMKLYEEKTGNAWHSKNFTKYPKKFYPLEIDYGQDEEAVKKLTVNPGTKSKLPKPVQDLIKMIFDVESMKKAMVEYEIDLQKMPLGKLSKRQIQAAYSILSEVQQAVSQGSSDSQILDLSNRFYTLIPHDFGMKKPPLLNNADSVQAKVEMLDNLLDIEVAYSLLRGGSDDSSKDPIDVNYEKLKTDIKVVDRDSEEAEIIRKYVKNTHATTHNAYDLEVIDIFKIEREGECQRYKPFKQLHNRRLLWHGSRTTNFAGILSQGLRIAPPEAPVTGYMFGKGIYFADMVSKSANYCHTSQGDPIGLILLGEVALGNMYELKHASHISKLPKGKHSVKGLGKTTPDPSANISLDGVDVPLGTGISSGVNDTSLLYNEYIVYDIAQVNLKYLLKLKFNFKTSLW
PARP2, sequence (Q9UGN5 whole entry): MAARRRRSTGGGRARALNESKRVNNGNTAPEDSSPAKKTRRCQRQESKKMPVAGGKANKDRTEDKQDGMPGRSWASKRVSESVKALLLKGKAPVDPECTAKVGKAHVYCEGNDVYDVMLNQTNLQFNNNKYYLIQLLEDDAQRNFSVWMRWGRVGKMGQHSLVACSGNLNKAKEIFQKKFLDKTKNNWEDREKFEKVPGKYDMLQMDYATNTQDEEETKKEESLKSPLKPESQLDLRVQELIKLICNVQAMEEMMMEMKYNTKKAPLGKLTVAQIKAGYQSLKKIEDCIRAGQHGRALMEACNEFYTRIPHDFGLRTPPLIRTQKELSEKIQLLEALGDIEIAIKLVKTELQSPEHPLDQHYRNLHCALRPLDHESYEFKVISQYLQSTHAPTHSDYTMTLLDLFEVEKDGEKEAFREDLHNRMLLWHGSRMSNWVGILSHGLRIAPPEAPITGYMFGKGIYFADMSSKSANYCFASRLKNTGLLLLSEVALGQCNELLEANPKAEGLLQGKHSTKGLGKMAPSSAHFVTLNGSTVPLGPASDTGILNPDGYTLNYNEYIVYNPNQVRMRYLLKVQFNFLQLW

For the molecule `CO[C@H]1C[C@@H](NC(=O)c2ccc(N3C[C@H]4CN(Cc5cnc6c7c(c(=O)[nH]c6c5)COCC7)C[C@@H]4C3)c(F)n2)C1` [Compound 73], the IC50 came to 8.29 nM on PARP1, 1040 nM on PARP2, 0.27 nM with MDA-MB-436 cells and 1.09 nM with DLD1 BRCA2−/− cells. For the same molecule, the concentration at 24 h came out at 206 ng/g in series [1] (setting [2]) and 3.2 ng/mL in series [1] (setting [3]). The Kp – broadly, the ratio of the level in a tissue or fluid to that in plasma or blood – at 24 h in series [1] is 64.

In the case of `CCc1cc2ncc(CN3CCN(c4ccc(C(=O)NC)nc4)CC3)cc2[nH]c1=O` [AZD5305, reference compound], the concentration at 24 h in series [1] (setting [2]) came out at 249 ng/g; in series [1] (setting [3]), 584 ng/mL. Further, in series [1], the Kp at 24 h worked out at 0.4.

With `O=C(NC1COC1)c1ccc(N2C[C@H]3CN(Cc4cnc5c6c(c(=O)[nH]c5c4)CCC6)C[C@@H]3C2)c(F)n1` [Compound 52], the IC50 against PARP1 was found to be 7.41 nM; on PARP2, 3310 nM; in the series on MDA-MB-436 cells, 0.44 nM; in the series on DLD1 BRCA2−/− cells it was 1.44 nM. Also, the concentration at 24 h in series [1] (setting [2]) stood at 121 ng/g; in series [1] (setting [3]), 4.3 ng/mL. For the same molecule, the Kp at 24 h in series [1] came to 28.

Take `O=C(NC1CC1)c1ccc(N2C[C@@H]3CN(Cc4cnc5c6c(c(=O)[nH]c5c4)COCC6)C[C@H]3C2)c(F)n1` (stereo in doubt) [Compound 72]: the IC50 is 9.52 nM at PARP1, 832 nM on PARP2, 0.35 nM with MDA-MB-436 cells and 2.11 nM with DLD1 BRCA2−/− cells.

As to `O=C(N[C@H]1CCOC1)c1ccc(N2C[C@H]3CN(Cc4ccc5c6c(c(=O)[nH]c5c4)COCC6)C[C@@H]3C2)c(F)n1` [Compound 85], the IC50 at PARP1 was determined as 8.15 nM; at PARP2, 811 nM; in the series with MDA-MB-436 cells, 1.05 nM; in the series with DLD1 BRCA2−/− cells, 1.1 nM.

In the case of `CCc1cc2cnc(CN3C[C@@H]4CN(c5ccc(C(=O)NC)nc5F)C[C@H]4C3)cc2[nH]c1=O` [Compound 40], the IC50 turned out to be 9.28 nM against PARP1, 4050 nM on PARP2, 0.62 nM in the series on MDA-MB-436 cells and 0.77 nM in the series with DLD1 BRCA2−/− cells.

With `O=C(NC1COC1)c1ccc(N2C[C@H]3CN(Cc4ccc5c6c(c(=O)[nH]c5c4)CCC6)C[C@@H]3C2)c(F)n1` [Compound 87], the IC50 worked out at 5.73 nM on PARP1, 1200 nM on PARP2, 0.66 nM in the series with MDA-MB-436 cells and 0.62 nM with DLD1 BRCA2−/− cells. Moreover, the figures for the concentration at 24 h in series [1] (setting [2]) and in series [1] (setting [3]) were 244 ng/g and 22 ng/mL, respectively. Moreover, in series [1], the Kp at 24 h was found to be 11.

With `CNC(=O)c1ccc(N2C[C@H]3CN(Cc4cc5[nH]c(=O)c6c(c5cn4)COCC6)C[C@@H]3C2)c(F)n1` [Compound 80], the IC50 is 5.05 nM against PARP1, 3880 nM at PARP2, 0.84 nM in the series on MDA-MB-436 cells and 4.75 nM in the series on DLD1 BRCA2−/− cells.

For `CNC(=O)c1ccc(N2C[C@H]3CN(Cc4cnc5c6c(c(=O)[nH]c5c4)CCCC6)C[C@@H]3C2)c(F)n1` [Compound 82], the IC50 against PARP1 came out at 13.1 nM; at PARP2, 185 nM; in the series on MDA-MB-436 cells, 1.38 nM; in the series with DLD1 BRCA2−/− cells, 0.55 nM.

On to `CNC(=O)c1ccc(N2C[C@@H]3CN(Cc4cnc5c(c4)[nH]c(=O)c4cccn45)C[C@H]3C2)cn1` (racemic) [Compound 4], for which the IC50 against PARP1 is 7.93 nM; on PARP2, 925 nM; in the series with MDA-MB-436 cells it was 0.9 nM; in the series on DLD1 BRCA2−/− cells, 0.58 nM.

Take `CNC(=O)c1ccc(N2C[C@H]3CN(Cc4ccc5c6c(c(=O)[nH]c5c4)COCC6)C[C@@H]3C2)c(F)n1` [Compound 66]: the IC50 on PARP1 stood at 4.87 nM; on PARP2, 219 nM; with MDA-MB-436 cells it was 0.12 nM; with DLD1 BRCA2−/− cells, 0.52 nM.

On to `COCCNC(=O)c1ccc(N2C[C@H]3CN(Cc4cnc5c(c4)[nH]c(=O)c4cccn45)C[C@@H]3C2)cn1` [Compound 46], for which the IC50 on PARP1 is 8.21 nM; on PARP2, 2440 nM; in the series on MDA-MB-436 cells, 1.66 nM; in the series with DLD1 BRCA2−/− cells, 3.01 nM.

Turning to `CNC(=O)c1ccc(N2C[C@H]3CN(Cc4cc5[nH]c(=O)c6c(c5cn4)CCC6)C[C@@H]3C2)c(F)n1` [Compound 54], the IC50 at PARP1 is 6.44 nM; at PARP2 it was 7100 nM; with MDA-MB-436 cells, 0.45 nM; in the series on DLD1 BRCA2−/− cells, 0.54 nM.

Consider `O=C(N[C@@H]1CCOC1)c1ccc(N2C[C@H]3CN(Cc4ccc5c6c(c(=O)[nH]c5c4)COCC6)C[C@@H]3C2)c(F)n1` [Compound 86], for which the IC50 at PARP1 came to 11.7 nM; on PARP2, 2370 nM; with MDA-MB-436 cells, 2.25 nM; in the series on DLD1 BRCA2−/− cells, 1.37 nM.

As for `CNC(=O)c1ccc(N2C[C@H]3CN(Cc4cnc5c6c(c(=O)[nH]c5c4)COCC6)C[C@@H]3C2)c(F)n1` [Compound 71], the IC50 was 5.05 nM at PARP1, 500 nM at PARP2, 0.18 nM in the series on MDA-MB-436 cells and 0.44 nM in the series with DLD1 BRCA2−/− cells.

Consider `CNC(=O)c1ccc(N2C[C@H]3CN(Cc4ccc5c6c(c(=O)[nH]c5c4)COC6)C[C@@H]3C2)c(F)n1` [Compound 60], for which the IC50 was 8.17 nM at PARP1, 2470 nM at PARP2, 1.04 nM in the series with MDA-MB-436 cells and 1.6 nM in the series on DLD1 BRCA2−/− cells.

For the molecule `O=C(NC1COC1)c1ccc(N2C[C@H]3CN(Cc4cnc5c(c4)[nH]c(=O)c4cccn45)C[C@@H]3C2)c(F)n1` [Compound 64], the IC50 was 8.01 nM against PARP1, 2900 nM on PARP2, 0.24 nM in the series on MDA-MB-436 cells and 0.55 nM in the series with DLD1 BRCA2−/− cells.

For `CNC(=O)c1ccc(N2C[C@H]3CN(Cc4cnc5c6c(c(=O)[nH]c5c4)CCC6)C[C@@H]3C2)c(F)n1` [Compound 48], the IC50 against PARP1 amounted to 12 nM; at PARP2, 2050 nM; in the series with MDA-MB-436 cells, 0.74 nM; in the series with DLD1 BRCA2−/− cells, 1.02 nM.

As for `COCCNC(=O)c1ccc(N2C[C@H]3CN(Cc4cnc5c6c(c(=O)[nH]c5c4)CCC6)C[C@@H]3C2)c(F)n1` [Compound 49], the IC50 at PARP1 was found to be 9.61 nM; at PARP2 it was 2110 nM; in the series on MDA-MB-436 cells it was 1.03 nM; with DLD1 BRCA2−/− cells, 2.16 nM.

For the molecule `CCc1cc2ncc(CN3C[C@@H]4CN(c5ccc(C(=O)NC)nc5F)C[C@H]4C3)cc2[nH]c1=O` [Compound 27], the IC50 at PARP1 was 7.52 nM; on PARP2 it was 1100 nM; with MDA-MB-436 cells, 0.23 nM; in the series with DLD1 BRCA2−/− cells, 0.22 nM.

The values are drawn from patent US20260226076A1, “FUSED MULTICYCLIC COMPOUNDS AND THEIR USE AS PARP1 INHIBITORS” (LAEKNA THERAPEUTICS SHANGHAI CO., LTD., priority 2022, published 2026).
